Test results from article PMC10539350 (Scientific Reports, 2023).
≈ marks a conversion by molar mass, not a printed value. Read-outs that look alike come from different tables or passages of the source.

Assays:
M. tuberculosis H37Rv [1] = experiment: tuberculostatic activity, broth microdilution MIC (Alamar blue); format: cell-based, Mycobacterium tuberculosis; details: for MIC: Mycobacterium tuberculosis, 504 h, M. tuberculosis H37Rv, read-out: Minimal inhibitory concentration; for activity in words: toward standard and susceptible strains
[2] = tested on: M. tuberculosis SIR Ciprofloxacin susceptible 168/22; experiment: as above; format: cell-based, Mycobacterium tuberculosis; details: for MIC: Mycobacterium tuberculosis, read-out: Minimal inhibitory concentration; for activity in words: susceptible bacteria
[3] = tested on: Mycobacterium tuberculosis strains (H37Rv, 22/22, 168/22); experiment: synergism-antagonism evaluation, summary over all strains; format: cell-based
[4] = IAM-HPLC affinity to phospholipids (CHI protocol); format: physicochemical; details: for log kIAM: 0.045*CHIIAM+0.42; for CHIIAM: IAM column, pH 7.4, ACN gradient
physchem = format: physicochemical; details: for CHIC18: C18 column, pH 7.4, ACN gradient; for chromatographic logD: pH 7.4
Description: For HPLC analyses Prominence-1 LC-2030C 3D HPLC system (Shimadzu, Japan) equipped with a DAD detector and controlled by LabSolution system (version 5.90 Shimadzu, Japan) was used. Two different chromatography columns packed with surface-modified silica were utilized in this study: • Octyldecylsilane (C18 Hypersil GOLD™; 50 mm × 4.6 mm; 5.0 µm; Thermo Scientific, USA) • Immobilized artificial membrane (IAM.PC.DD2; 10 × 4.6 mm × 10.0 µm; Regis Technologies; USA).
Both columns were equipped with guard precolumn containing the same silica-modified bed as the main column. All measurements were carried out using the protocol proposed by Valko[19] and co-workers and adopted in our laboratory. Briefly, methods developed by Valko offered the determination of Chromatographic Hydrophobicity Index (CHI) indices using one gradient elution experiment. Ammonium acetate buffer (50 mM, pH 7.4) and acetonitrile (ACN) were used as the mobile phase at a 1.5 mL/min flow rate. The gradient range varies depending on the column type: • For C18 starting from 2 to 98% ACN in 5.25 min. The maximum concentration of ACN was applied for 1.75 min. • For IAM starting from 0 to 85% ACN in 5.25 min. The maximum concentration of ACN was used for 0.5 min.
During the chromatographic separation, the temperature was stable at 30 °C. […] The injected volume was 10 μL, whereas the concentration of solutes was at level 100 μg/mL. All studied compounds were dissolved in DMSO. Each chromatographic experiments run in triplicate. […] Retention times for studied molecules and reference standards are collected in supplementary materials, Tables S1, S2 and S3, respectively.
Next, the CHIC18 values were converted into lipophilicity indices CHI log D using Eq. […]

[5] = tested on: human colon cancer cells (HCT-116); details: cited from earlier work
[6] = tested on: human immortal keratinocyte cell line (HaCaT); details: cited from earlier work
[7] = cited from earlier work
[8] = cited from earlier work; remark: listed apart in the source
M. tuberculosis H37Rv [9] = format: cell-based, Mycobacterium tuberculosis; details: derivative 6 at 1/2 MIC
[10] = 21 days 37 °C, Middlebrook 7H9 + OADC
[11] = determined in an earlier study ref 15
[12] = calibration set on the IAM column, CHI index, Table S3 ref 19
[13] = calibration set on the C18 column, literature CHI index, Table S2 ref 19

| SMILES | MIC (M. tuberculosis H37Rv [1]; [10]) [µg/mL] | MIC [2] [µg/mL] | log kIAM [4] | CHIIAM [4] | CHIC18 (physchem) | chromatographic logD (physchem) | further results |
| --- | --- | --- | --- | --- | --- | --- | --- |
| NNC(=O)c1ccncc1 [Isoniazid, reference compound] | 0.0625 | 0.5 (≈ 3.65 µM) | – | – | – | – | – |
| CO[C@H]1/C=C/O[C@@]2(C)Oc3c(C)c(O)c4c(O)c(c(/C=N/N5CCN(C)CC5)c(O)c4c3C2=O)NC(=O)/C(C)=C\C=C\[C@H](C)[C@H](O)[C@@H](C)[C@@H](O)[C@@H](C)[C@H](OC(C)=O)[C@@H]1C [Rifampicin, reference compound] | 0.5 | 64 (≈ 77.8 µM) | – | – | – | – | activity in words [2]: poor activity |
| CC(C)[C@@H]1CC[C@@H](C)C[C@H]1OC(=O)CCCCCN1CCN(c2cc3c(cc2F)c(=O)c(C(=O)O)cn3C2CC2)CC1 [Compound 6, 1‐cyclopropyl‐6‐fluoro‐7‐{4‐[6‐((1R,2S,5R)‐2‐isopropyl‐5‐methylcyclohexyloxy)‐6‐oxohexyl]piperazin‐1‐yl}‐4‐oxo‐1,4‐dihydroquinoline‐3‐carboxylic acid] | 1 | 1 (≈ 1.71 µM) | 2.74 | 51.47 | 139.48 | 5.86 | FICI values, derivative 6 with Linezolid [3]: 1.0; interaction type from FICI [3]: indifference (key: synergism (FICI ≤ 0.5); indifference (> 0.5 FICI ≤ 4); antagonism (FICI > 4)); IC50 ([5]; HCT-116, MTT assay ref 10): 29.5 ± 2.1 µM; selectivity index ([5]; HCT-116 versus HaCaT ref 10): 3.4; cytotoxic effect [6]: no cytotoxic effect |
| O=C(O)c1cn(C2CC2)c2cc(N3CCNCC3)c(F)cc2c1=O [Ciprofloxacin, reference compound] | – | – | – | – | – | – | CHIIAM [7, 11]: 19.70; log kIAM [7, 11]: 1.31; CHIC18 [8, 11]: 35.61 |
| Cc1ccc(C(C)C)c(OC(=O)CN2CCN(c3cc4c(cc3F)c(=O)c(C(=O)O)cn4C3CC3)CC2)c1 [Compound 10] | 1 | 1 (≈ 1.92 µM) | – | 42.88 | 111.26 | 4.37 | – |
| CCCCCCCC(=O)c1ccccc1 [Octanophenone] | – | – | – | – | – | – | CHIIAM [7, 12]: 49.4 |
| CCC(=O)c1ccccc1 [Propiophenone] | – | – | – | – | – | – | CHIIAM [7, 12]: 25.9; CHIC18 [8, 13]: 77,5 |
| CC[C@@H](CO)NCCN[C@@H](CC)CO [Ethambutol, reference compound] | 0.25 | 0.5 (≈ 2.45 µM) | – | – | – | – | – |
| CCCCC(=O)c1ccccc1 [Valerophenone] | – | – | – | – | – | – | CHIIAM [7, 12]: 37.3; CHIC18 [8, 13]: 96,2 |
| CC1CCC(C(C)C)C(OC(=O)CCCN2CCN(c3cc4c(cc3F)c(=O)c(C(=O)O)cn4C3CC3)CC2)C1 (stereo not drawn) [Compound 4] | 0.5 | 0.5 (≈ 0.9 µM) | 2.82 | 53.32 | 132.45 | 5.49 | – |
| Cc1ccc(C(C)C)c(OC(=O)CCCN2CCN(c3cc4c(cc3F)c(=O)c(C(=O)O)cn4C3CC3)CC2)c1 [Compound 12] | 0.5 | 0.5 (≈ 0.91 µM) | 2.48 | 45.75 | 115.60 | 4.6 | – |
| CC1CCC(C(C)C)C(OC(=O)CCCCN2CCN(c3cc4c(cc3F)c(=O)c(C(=O)O)cn4C3CC3)CC2)C1 (stereo not drawn) [Compound 5] | 4 | 4 (≈ 7.02 µM) | 2.62 | 48.95 | 134.85 | 5.61 | – |
| Cc1ccc(C(C)C)c(OCC(=O)N2CCN(c3cc4c(cc3F)c(=O)c(C(=O)O)cn4C3CC3)CC2)c1 [Compound 9] | 256 | 256 (≈ 491 µM) | 2.38 | 43.58 | 129.41 | 5.33 | activity in words (M. tuberculosis H37Rv [1]): not active |
| Cn1c(=O)c2[nH]cnc2n(C)c1=O [Theophylline] | – | – | – | – | – | – | CHIC18 [8, 13]: 18,4 |
| CC(=O)c1ccccc1 [Acetophenone] | – | – | – | – | – | – | CHIIAM [7, 12]: 17.2; CHIC18 [8, 13]: 65,1 |
| CCCCCC(=O)c1ccccc1 [Hexanophenone] | – | – | – | – | – | – | CHIIAM [7, 12]: 41.8 |
| CC1CCC(C(C)C)C(OC(=O)CCCCCOC(=O)c2cn(C3CC3)c3cc(N4CCN(CCCCCC(=O)OC5CC(C)CCC5C(C)C)CC4)c(F)cc3c2=O)C1 (stereo not drawn) [Compound 8] | 4 | 4 (≈ 4.78 µM) | 3.02 | 57.85 | 179.66 | 7.97 | – |

| SMILES | MIC (M. tuberculosis H37Rv [1]; [10]) [µg/mL] | MIC [2] [µg/mL] | log kIAM [4] | CHIIAM [4] | CHIC18 (physchem) | chromatographic logD (physchem) | further results |
| --- | --- | --- | --- | --- | --- | --- | --- |
| CC1CCC(C(C)C)C(OCC(=O)N2CCN(c3cc4c(cc3F)c(=O)c(C(=O)O)cn4C3CC3)CC2)C1 (stereo not drawn) [Compound 1] | 32 | 256 (≈ 485 µM) | 2.47 | 45.54 | 112.24 | 4.43 | activity in words (M. tuberculosis H37Rv [1]): not active |
| CC(=O)Nc1ccc(O)cc1 [Paracetamol] | – | – | – | – | – | – | CHIIAM [7, 12]: 2.9 |
| [H]/N=C(/N)N[C@H]1[C@H](O)[C@@H](O)[C@H](O[C@@H]2O[C@@H](C)[C@](O)(C=O)[C@H]2O[C@@H]2O[C@@H](CO)[C@H](O)[C@@H](O)[C@@H]2NC)[C@@H](N/C(N)=N\[H])[C@@H]1O [Streptomycin, reference compound] | 0.25 | 64 (≈ 110 µM) | – | – | – | – | activity in words [2]: poor activity |
| c1ccc2[nH]cnc2c1 [Benzimidazole] | – | – | – | – | – | – | CHIC18 [8, 13]: 34,3 |
| CCCC(=O)c1ccccc1 [Butyrophenone] | – | – | – | – | – | – | CHIIAM [7, 12]: 32; CHIC18 [8, 13]: 87,5 |
| CC1CCC(C(C)C)C(OC(=O)CCCCOC(=O)c2cn(C3CC3)c3cc(N4CCN(CCCCC(=O)OC5CC(C)CCC5C(C)C)CC4)c(F)cc3c2=O)C1 (stereo not drawn) [Compound 7] | – | 256 (≈ 317 µM) | 2.92 | 55.54 | 170.54 | 7.49 | MIC (M. tuberculosis H37Rv [1]; […]): 256 µg/mL (≈ 317 µM); activity in words (M. tuberculosis H37Rv [1]): not active |
| CC1CCC(C(C)C)C(OC(=O)CN2CCN(c3cc4c(cc3F)c(=O)c(C(=O)O)cn4C3CC3)CC2)C1 (stereo not drawn) [Compound 2] | 0.5 | 2 (≈ 3.79 µM) | 2.53 | 46.88 | 127.44 | 5.22 | – |
| Cc1ccc(C(C)C)c(OC(=O)CCN2CCN(c3cc4c(cc3F)c(=O)c(C(=O)O)cn4C3CC3)CC2)c1 [Compound 11] | 1 | 1 (≈ 1.87 µM) | 2.42 | 44.44 | 113.95 | 4.52 | – |
| CCCCCCC(=O)c1ccccc1 [Heptanophenone] | – | – | – | – | – | – | CHIIAM [7, 12]: 45.7 |
| Cc1ccc(C(C)C)c(OC(=O)CCCOC(=O)c2cn(C3CC3)c3cc(N4CCN(CCCC(=O)Oc5cc(C)ccc5C(C)C)CC4)c(F)cc3c2=O)c1 [Compound 15] | 64 | 64 (≈ 83.3 µM) | 2.47 | 45.54 | 135.98 | 5.67 | activity in words (M. tuberculosis H37Rv [1]): not active |
| Cc1ccc(C(C)C)c(OC(=O)CCCCCOC(=O)c2cn(C3CC3)c3cc(N4CCN(CCCCCC(=O)Oc5cc(C)ccc5C(C)C)CC4)c(F)cc3c2=O)c1 [Compound 16] | 4 | 4 (≈ 4.85 µM) | 2.64 | 49.33 | 144.84 | 6.14 | – |
| CC(=O)NC[C@H]1CN(c2ccc(N3CCOCC3)c(F)c2)C(=O)O1 [Linezolid, reference compound] | 0.003 | 0.007 (≈ 0.0207 µM) | – | – | – | – | MIC for reference drug in the presence of derivative 6 (M. tuberculosis H37Rv [9]): 0.0015 µg/mL |
| Cc1ccc(C(C)C)c(OC(=O)CCCCCN2CCN(c3cc4c(cc3F)c(=O)c(C(=O)O)cn4C3CC3)CC2)c1 [Compound 14] | 0.5 | 0.5 (≈ 0.866 µM) | 2.68 | 50.29 | 121.48 | 4.91 | – |
| Cc1ccc(C(C)C)c(OC(=O)CCCCN2CCN(c3cc4c(cc3F)c(=O)c(C(=O)O)cn4C3CC3)CC2)c1 [Compound 13] | 2 | 2 (≈ 3.55 µM) | 2.53 | 46.96 | 117.28 | 4.69 | – |
| CC1CCC(C(C)C)C(OC(=O)CCN2CCN(c3cc4c(cc3F)c(=O)c(C(=O)O)cn4C3CC3)CC2)C1 (stereo not drawn) [Compound 3] | 2 | 2 (≈ 3.69 µM) | 2.65 | 49.56 | 129.99 | 5.36 | – |
| CC(=O)Nc1ccccc1 [Acetanilidine] | – | – | – | – | – | – | CHIIAM [7, 12]: 11.5 |
